Results on one compound are retold here after publication PMC7053711, “A G protein–coupled receptor mediates neuropeptide-induced oocyte maturation in the jellyfish Clytia” (PLoS Biology, 2020).

Entries after “also recorded” stand apart in the source; their conditions may differ. Peptide text beside a SMILES is read from it.

The subject of assay [1] is MIHR mutant (n5-23, n5-13) isolated female gonads. Nature of the assay: Gonad spawning assay, MIHR mutant isolated gonads. Also noted: species or system Clytia hemisphaerica. To be noted: for Gonads spawning (number) / Percentage of spawning gonads: 0,1uM WPRPa, MIH R K.O. How it is done:
(§1) We performed a series of oocyte maturation and spawning assays, comparing the responses of wild-type and MIHR mutant isolated gonads and oocytes to different stimuli (Fig 4).
(§2) Sexually mature MIHR mutant medusae from colonies n5-13 and n5-23 and wild-type medusae were cultured on the same day–night cycle. Individual gonads were dissected in the evening after afternoon spawning. To test the light response, one group of each was transferred to 100 μL MFSW in wells of 96-well plastic plates, covered overnight, and re-exposed to white light the following day. To test responses to MIH and cAMP, other groups of dissected gonads were cultured overnight in constant light, then transferred to 96-well plastic plates for two hours. MIH was added to wells as an equal volume of 200 nM WPRPamide (GenScript) stock in MFSW was added to give a final concentration of 100 nM. Alternatively, a stock of 20 mM bromo adenosine 3′,5′cyclic monophosphate (Br-cAMP–Fluka; Sigma Aldrich) in distilled water was added to give a final concentration of 4 mM. Gonads were washed after 5 minutes incubation in Br-cAMP. Oocyte maturation was scored after 30 minutes as germinal vesicle breakdown (GVBD), i.e., visible dissolution of the oocyte nuclear membrane upon entry into M phase, which in all cases was followed by spawning about 1 hour later.
(§3) Supplementary file pbio.3000614.s013.xlsx: S3 Data Numerical data corresponding to Fig 4A and 4C. The first tab collects all the raw data from 3 independent gonad spawning assays. Information corresponding to the Fisher exact tests is also shown. […] The means and standard deviations were used to prepare the graph in Fig 4C. Information corresponding to the Fisher exact tests is also shown. (XLSX) Click here for additional data file.

Assay [2] concerns wild-type (WT) isolated female gonads. The assay is described as follows: Gonad spawning assay, wild-type isolated gonads. Also noted: species or system Clytia hemisphaerica. How it is done:
as §1, §2, §3

Another assay relates to Clytia MIHR. Nature of the assay: GPCR deorphanization assay, luminescence response to peptides at 1 μM (CHO-K1 cells, Gα-16, GFP-apoaequorin). Format: cell-based, Clytia hemisphaerica. As to conditions: peptide 1E-6M, normalised to Platynereis FLamide receptor + 1 μM AKYFL-NH2, n = 3. An excerpt: We used a cell culture–based GPCR deorphanization assay to identify the MIH receptor from our candidate shortlist. cDNAs for each candidate were transfected into Chinese Hamster ovary K1 (CHO-K1) cells along with the promiscuous Gα protein Gα-16, and an aequorin-GFP luminescence reporter that measures Ca^2+ mobilization downstream of this heterologous Gα protein [27, 28]. We first screened the 16 candidate Clytia GPCRs against a mixture of 33 synthetic amidated peptides (including MIHs) predicted to be generated from previously identified putative Clytia neuropeptide precursors and one additional one identified from transcriptome data. Given our imperfect knowledge of pro-peptide processing in cnidarians, some of the synthetic peptides may not correspond to endogenous peptides. Only one of the 16 GPCRs was activated by this peptide mixture. This receptor responded well to all 4 synthetic Clytia MIH tetrapeptides, as well as to related Cladonema MIH peptides that can also activate Clytia oocyte maturation, but not to other Clytia peptide mixtures or poorly active MIH penta-/tripeptides. We termed this Clytia GPCR the Maturation Inducing Hormone Receptor (MIHR). The activity of individual peptides at 1 μM to stimulate the MIHR closely matched their in vivo ability to induce oocyte maturation (Fig 1B).
Cell culture GPCR ligand response assays were performed as described. Briefly, CHO-K1 cells were cultured in Ham’s F12 Nut Mix medium (Thermo Fisher Scientific) with 10% foetal bovine serum. Cells were seeded in 96-well plates at approximately 10,000 cells/well and transfected the following day with pcDNA3.1(+) plasmids encoding each of the 16 candidate Clytia GPCRs (S2 Text), the promiscuous Gα-16 protein [65], and a reporter construct GFP-apoaequorin [66] (60 ng each) using the transfection reagent TurboFect (Thermo Fisher Scientific). After 2 days of expression, the medium was removed and replaced with Hank’s balanced salt solution (HBSS) supplemented with 1.8 mM Ca2+, 10 mM glucose, and […] coelenterazine h (Promega, Madison, WI). After incubation at 37 °C for 2 hours, cells were tested by adding synthetic peptides (GenScript) in HBSS supplemented with 1.8 mM Ca2^+ and 10 mM glucose. A list of all synthetic peptides used is provided in S2 Table. Luminescence was recorded for 45 seconds in a plate reader (BioTek Synergy Mx or Synergy H4; BioTek, Winooski, VT). Data were integrated over the 45-second measurement period and recorded as technical triplicates in each case. Data were normalized using the response of Platynereis FLamide receptor to 1 μM AKYFL-NH2 [28]. Dose–response curves were obtained using concentrations between 0.01 nM and 100 μM for each peptide. Data for dose–response curves were recorded in triplicate for each concentration and the experiment was repeated independently 3 times. Dose–response curves were fitted with a four-parameter curve using Prism 6 (GraphPad, La Jolla, CA) and were normalized to the calculated upper plateau values (100% activation).
Supplementary file pbio.3000614.s011.xlsx: S1 Data Numerical data corresponding to Fig 1B. Raw luminescence values obtained in triplicate for each of the neuropeptide combinations tested against the MIHR in the deorphanization assay are provided. In the right-hand table, the raw luminescence values obtained in quadruple for the positive and negative controls are provided. In the lower table, means and standard errors of the mean of the luminescence values obtained for each neuropeptide combination and controls are also shown, as well as the values normalized to the positive control, which were used to prepare the graph shown in Fig 1B. MIHR, MIH receptor. (XLSX) Click here for additional data file.

The mark [3] stands for this setting: WPRPa, pooled n=82, Fisher exact test vs WT significant at p < .01.
Setting [4] is: 0,1uM WPRPa, wild type, replicate 1, total 22.
[5] abbreviates: 0,1uM WPRPa, wild type, replicate 2, total 24.
The mark [6] stands for this setting: 0,1uM WPRPa, wild type, replicate 3, total 18.
The mark [7] stands for this setting: WPRPa, pooled n=64, Fisher exact test vs MIHR KO significant at p < .01.

On to `N=C(N)NCCC[C@H](NC(=O)[C@@H]1CCCN1C(=O)[C@@H](N)Cc1c[nH]c2ccccc12)C(=O)N1CCC[C@H]1C(N)=O` [WPRPa] (H-WPRP-NH2; N-terminus assumed), for which the “Gonads spawning (number)” value came out at 0 in assay [1] (replicate 1, total 29); 0 in assay [1] (replicate 2, total 29); 0 in assay [1] (replicate 3, total 24); 19 in assay [2] (setting [4]); 24 in assay [2] (setting [5]); 18 in assay [2] (setting [6]). In addition, the “Percentage of spawning gonads” value stood at 0 in assay [1] (replicate 1, total 29); 0 in assay [1] (replicate 2, total 29); 0 in assay [1] (replicate 3, total 24); 86.3636 in assay [2] (setting [4]); 100 in assay [2] (setting [5]); 100 in assay [2] (setting [6]). The “Percentage of spawning gonads (summary)” value in assay [1] (WPRPa, MIHR K.O., summary of 3 replicates) is 0. Moreover, the “Non-spawning gonads, MIHR KO NO” value in assay [1] (setting [3]) was 82. Moreover, in assay [1] (setting [3]), the “Spawning gonads, MIHR KO YES” value was 0. For the same compound, the “oocyte maturation and spawning of MIHR mutant gonads, MIH treatment” value in assay [1] (isolated MIHR mutant gonads, 100 nM WPRPamide) was “MIHR mutant gonads did not respond; also recorded: No oocyte maturation or spawning was observed”. Further, the “Percentage of spawning gonads, Mean” value in assay [2] (0,1uM WPRPa, wild type, mean of 3 replicates, Desvest 7.87296) was found to be 95.4545. The “Non-spawning gonads, WT NO” value in assay [2] (setting [7]) is given as 3. In assay [2] (setting [7]), the “Spawning gonads, WT YES” value is recorded as 61. In addition, in assay [2] (isolated WT gonads, 100 nM WPRPamide), the “oocyte maturation and spawning of WT gonads” value was “underwent oocyte maturation and spawning”. Further, the “Normalised response (to positive control), mean” value in the assay with Clytia MIHR was 0.381.
